Measurements: the NIST ThermoML archive (doi:10.1021/je049595u)

Experiments:
[1] = Molar enthalpy of transition or fusion; details: Crystal
[2] = molar heat capacity at saturation pressure

Cc1cccc2cccnc12 [8-methylquinoline]
Details | mass density [kg/m3] | molar heat capacity [J/K/mol] | vapor or sublimation pressure [kPa]
315.61 K, Liquid, Inclined piston gauge | – | – | 0.0242
324.98 K, Liquid, Inclined piston gauge | – | – | 0.0466
334.99 K, Liquid, Inclined piston gauge | – | – | 0.0905
344.98 K, Liquid, Inclined piston gauge | – | – | 0.1674
354.98 K, Liquid, Inclined piston gauge | – | – | 0.2975
364.98 K, Liquid, Inclined piston gauge | – | – | 0.5091
374.98 K, Liquid, Inclined piston gauge | – | – | 0.8418
384.98 K, Liquid, Inclined piston gauge | – | – | 1.35
393.84 K, Liquid, Twin ebulliometer | – | – | 2.001
394.97 K, Liquid, Inclined piston gauge | – | – | 2.102
400.6 K, Liquid, Twin ebulliometer | – | – | 2.665
404.97 K, Liquid, Inclined piston gauge | – | – | 3.19
410.7 K, Liquid, Twin ebulliometer | – | – | 4.004
418.2 K, Liquid, Twin ebulliometer | – | – | 5.336
429.38 K, Liquid, Twin ebulliometer | – | – | 8.002
437.77 K, Liquid, Twin ebulliometer | – | – | 10.67
444.5 K, Liquid, Twin ebulliometer | – | – | 13.31
451.61 K, Liquid, Twin ebulliometer | – | – | 16.67
457.46 K, Liquid, Twin ebulliometer | – | – | 19.93
465.16 K, Liquid, Twin ebulliometer | – | – | 25.02
465.17 K, Liquid, Twin ebulliometer | – | – | 25.02
472.94 K, Liquid, Twin ebulliometer | – | – | 31.18
480.74 K, Liquid, Twin ebulliometer | – | – | 38.57
488.6 K, Liquid, Twin ebulliometer | – | – | 47.36
496.51 K, Liquid, Twin ebulliometer | – | – | 57.8
504.49 K, Liquid, Twin ebulliometer | – | – | 70.12
512.5 K, Liquid, Twin ebulliometer | – | – | 84.53
520.56 K, Liquid, Twin ebulliometer | – | – | 101.31
528.68 K, Liquid, Twin ebulliometer | – | – | 120.8
536.85 K, Liquid, Twin ebulliometer | – | – | 143.23
545.06 K, Liquid, Twin ebulliometer | – | – | 169
553.32 K, Liquid, Twin ebulliometer | – | – | 198.45
553.33 K, Liquid, Twin ebulliometer | – | – | 198.45
561.65 K, Liquid, Twin ebulliometer | – | – | 232
570.01 K, Liquid, Twin ebulliometer | – | – | 270
769.9 K, Gas, Measured as part of TC determination by DSC | 160.5 | – | –
775.8 K, Liquid, Measured as part of TC determination by DSC | 444.6 | – | –
784 K, Gas, Measured as part of TC determination by DSC | 244.7 | – | –
785.1 K, Liquid, Measured as part of TC determination by DSC | 349.8 | – | –
786 K, Gas, Measured as part of TC determination by DSC | 318.7 | – | –
[2], 460 K, Liquid | – | 289.36 | –
[2], 480 K, Liquid | – | 297.35 | –
[2], 500 K, Liquid | – | 305.31 | –
[2], 520 K, Liquid | – | 313.17 | –
[2], 540 K, Liquid | – | 320.92 | –
[2], 560 K, Liquid | – | 328.51 | –
[2], 580 K, Liquid | – | 335.9 | –
[2], 600 K, Liquid | – | 343.02 | –
[2], 620 K, Liquid | – | 349.87 | –
[2], 640 K, Liquid | – | 356.47 | –
[2], 660 K, Liquid | – | 362.89 | –
[2], 680 K, Liquid | – | 369.38 | –
[2], 700 K, Liquid | – | 376.44 | –

Details | Critical temperature, Liquid [K] | mass density, 323.14 K [kg/m3] | mass density, 348.13 K [kg/m3] | mass density, 373.12 K [kg/m3] | mass density, 398.12 K [kg/m3] | mass density, 423.11 K [kg/m3] | mass density, 448.11 K [kg/m3] | mass density, 473.11 K [kg/m3] | mass density, 498.11 K [kg/m3]
DTA | 787 | – | – | – | – | – | – | – | –
Liquid | – | 1049.3 | 1029 | 1009.5 | 988.5 | 967.8 | 947.5 | 926.6 | 904

Details | Molar enthalpy of transition or fusion [kcal/mol] | Triple point temperature [K]
Crystal | – | 246.94
[1] | 2.565 | –

molar heat capacity [J/K/mol], [2], Vacuum adiabatic calorimetry
Details | Crystal | Liquid
5 K | 0.45 | –
6.105 K | 0.81 | –
7.027 K | 1.26 | –
8.004 K | 1.86 | –
9.004 K | 2.64 | –
10 K | 3.53 | –
10.06 K | 3.58 | –
11.21 K | 4.73 | –
12.47 K | 6.05 | –
13.87 K | 7.66 | –
15.42 K | 9.47 | –
17.14 K | 11.51 | –
19.04 K | 13.71 | –
20 K | 14.8 | –
21.13 K | 16.07 | –
23.44 K | 18.64 | –
25.98 K | 21.32 | –
28.81 K | 24.19 | –
30 K | 25.37 | –
31.94 K | 27.23 | –
35.44 K | 30.44 | –
39.36 K | 33.85 | –
40 K | 34.39 | –
43.73 K | 37.46 | –
48.59 K | 41.21 | –
50 K | 42.28 | –
52.43 K | 44.08 | –
53.97 K | 45.21 | –
57.17 K | 47.47 | –
59.94 K | 49.35 | –
60 K | 49.4 | –
62.72 K | 51.23 | –
69 K | 55.27 | –
70 K | 55.87 | –
75.99 K | 59.46 | –
80 K | 61.81 | –
83.66 K | 63.9 | –
86.44 K | 65.46 | –
90 K | 67.47 | –
91.89 K | 68.5 | –
94.09 K | 69.68 | –
100 K | 72.87 | –
100.75 K | 73.28 | –
103.06 K | 74.5 | –
112.71 K | 79.57 | –
120 K | 83.32 | –
123.65 K | 85.25 | –
135.63 K | 91.49 | –
140 K | 93.7 | –
147.53 K | 97.64 | –
160 K | 104.11 | –
160.44 K | 104.42 | –
170 K | – | 184.91
174.36 K | 111.83 | –
175.64 K | 112.44 | –
175.79 K | – | 185.73
180 K | 114.69 | 186.36
181.22 K | – | 186.55
186.72 K | – | 187.58
186.91 K | 118.52 | –
188.79 K | 119.55 | –
199.75 K | 125.65 | –
200 K | 125.52 | 190.48
203.2 K | 127.63 | –
212.46 K | 132.96 | –
215.19 K | 134.54 | –
220 K | 136.62 | 195.81
224.46 K | 140.5 | –
225.29 K | 140.97 | –
232.54 K | – | 199.61
235.37 K | 150.91 | –
238.7 K | – | 201.71
240 K | 147.98 | 202.12
245.88 K | – | 204
246.94 K | 151.99 | 204.38
253.58 K | – | 206.7
253.72 K | – | 206.81
254.07 K | – | 206.89
256.36 K | – | 207.75
257.67 K | – | 208.16
260 K | – | 208.99
265.24 K | – | 210.84
269.69 K | – | 212.52
280 K | – | 216.4
282.82 K | – | 217.48
296.93 K | – | 222.97
298.15 K | – | 223.45
300 K | – | 224.18
310.97 K | – | 228.56
312.23 K | – | 229.08
320 K | – | 232.22
326.77 K | – | 234.98
340 K | – | 240.4
341.89 K | – | 241.17
357.58 K | – | 247.68
360 K | – | 248.69
373.8 K | – | 254.38
380 K | – | 256.96
389.63 K | – | 260.93
400 K | – | 265.18
405.69 K | – | 267.5
420 K | – | 273.33
422.45 K | – | 274.32
437.11 K | – | 280.26
440 K | – | 281.4
